Structures can show the parent of a compound that is named as a salt.

The target in the first experiment is hNav1.7 (Homo sapiens (Human), UniProt Q15858). As to the kind of experiment: Tritiated sulfonamide competitive binding to membranes from cells expressing hNav1.7 and the β1 subunit.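 Note: Filter-bound radioactivity counted by liquid scintillation, nonspecific binding defined with excess unlabelled ligand, IC50 fitted to percent inhibition of specific binding.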
Chain of hNav1.7 (Q15858 other isoform, or with tags, fused parts or gaps): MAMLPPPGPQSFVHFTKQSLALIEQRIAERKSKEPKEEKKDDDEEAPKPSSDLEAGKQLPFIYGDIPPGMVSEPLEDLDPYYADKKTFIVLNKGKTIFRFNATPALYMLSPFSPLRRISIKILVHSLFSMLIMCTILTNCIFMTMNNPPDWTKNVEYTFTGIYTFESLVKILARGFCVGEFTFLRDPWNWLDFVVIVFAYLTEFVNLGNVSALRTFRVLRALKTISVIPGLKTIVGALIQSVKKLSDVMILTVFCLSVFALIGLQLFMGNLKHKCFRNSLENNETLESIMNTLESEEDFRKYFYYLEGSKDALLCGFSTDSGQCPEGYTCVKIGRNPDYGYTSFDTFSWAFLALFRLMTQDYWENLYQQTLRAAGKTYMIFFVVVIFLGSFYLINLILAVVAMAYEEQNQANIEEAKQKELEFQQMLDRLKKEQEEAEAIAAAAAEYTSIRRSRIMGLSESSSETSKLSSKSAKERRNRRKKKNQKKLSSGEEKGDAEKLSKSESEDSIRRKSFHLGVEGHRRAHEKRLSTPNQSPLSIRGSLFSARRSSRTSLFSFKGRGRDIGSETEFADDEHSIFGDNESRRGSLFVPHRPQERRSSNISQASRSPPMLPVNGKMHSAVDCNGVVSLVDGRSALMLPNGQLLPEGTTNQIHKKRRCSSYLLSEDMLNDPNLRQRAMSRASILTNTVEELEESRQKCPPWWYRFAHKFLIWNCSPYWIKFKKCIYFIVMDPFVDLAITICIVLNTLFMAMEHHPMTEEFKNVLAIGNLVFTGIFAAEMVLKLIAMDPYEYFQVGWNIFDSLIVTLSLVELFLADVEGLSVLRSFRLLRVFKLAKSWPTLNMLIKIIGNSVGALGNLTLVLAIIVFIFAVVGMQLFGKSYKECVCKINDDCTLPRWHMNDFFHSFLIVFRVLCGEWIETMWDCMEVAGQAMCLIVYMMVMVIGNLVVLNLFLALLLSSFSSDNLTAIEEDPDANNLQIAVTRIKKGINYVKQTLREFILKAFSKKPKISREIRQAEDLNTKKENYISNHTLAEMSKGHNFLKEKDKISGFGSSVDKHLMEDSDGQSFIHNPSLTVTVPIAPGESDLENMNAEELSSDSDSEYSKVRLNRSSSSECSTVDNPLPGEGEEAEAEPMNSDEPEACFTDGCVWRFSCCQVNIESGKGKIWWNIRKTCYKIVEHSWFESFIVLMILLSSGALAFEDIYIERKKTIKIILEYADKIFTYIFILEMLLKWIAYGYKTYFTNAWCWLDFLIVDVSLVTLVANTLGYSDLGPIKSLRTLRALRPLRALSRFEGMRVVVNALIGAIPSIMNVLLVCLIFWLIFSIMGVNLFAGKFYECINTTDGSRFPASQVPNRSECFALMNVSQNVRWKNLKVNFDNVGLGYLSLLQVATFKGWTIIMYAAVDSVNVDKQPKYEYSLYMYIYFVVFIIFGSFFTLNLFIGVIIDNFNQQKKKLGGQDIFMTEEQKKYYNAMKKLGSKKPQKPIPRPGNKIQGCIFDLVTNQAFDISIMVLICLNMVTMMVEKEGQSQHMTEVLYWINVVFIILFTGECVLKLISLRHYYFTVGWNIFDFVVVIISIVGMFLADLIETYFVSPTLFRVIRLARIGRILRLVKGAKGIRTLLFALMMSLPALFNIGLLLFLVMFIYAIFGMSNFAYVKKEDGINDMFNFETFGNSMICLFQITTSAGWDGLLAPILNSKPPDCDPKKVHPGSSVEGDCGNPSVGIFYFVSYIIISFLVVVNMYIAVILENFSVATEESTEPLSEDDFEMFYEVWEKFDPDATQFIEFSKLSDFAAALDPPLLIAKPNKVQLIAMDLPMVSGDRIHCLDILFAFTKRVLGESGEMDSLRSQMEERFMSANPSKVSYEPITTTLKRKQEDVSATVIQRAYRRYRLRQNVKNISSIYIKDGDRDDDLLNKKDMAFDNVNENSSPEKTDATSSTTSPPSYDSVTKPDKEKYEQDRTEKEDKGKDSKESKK
Chain of hNav1.7 (Q07699 19-218 partner): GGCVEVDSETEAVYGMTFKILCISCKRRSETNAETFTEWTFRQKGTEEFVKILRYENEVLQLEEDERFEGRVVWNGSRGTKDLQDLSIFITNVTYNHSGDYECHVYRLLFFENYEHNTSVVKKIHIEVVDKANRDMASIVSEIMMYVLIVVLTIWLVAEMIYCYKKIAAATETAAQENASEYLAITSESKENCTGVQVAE
Conditions: not given
For the molecule `CS(=O)(=O)NC(=O)c1cc(C2CC2)c(OCC2CN([C@@H](c3ccccc3)c3ccc(C#N)cc3)C2)cc1F` [Example 110, (S)-4-((1-((4-Cyanophenyl)(phenyl)methyl)azetidin-3-yl)methoxy)-5-cyclopropyl-2-fluoro-N-(methylsulfonyl)benzamide], the IC50 worked out at 41.1 nM.

In turn, `CS(=O)(=O)NC(=O)c1cc(C2CC2)c(CN2CCN(Cc3cc(Cl)cc(Cl)c3)CC2)cc1F` [Example 517, 5-cyclopropyl-4-((4-(3,5-dichlorobenzyl)piperazin-1-yl)methyl)-2-fluoro-N-(methylsulfonyl)benzamide, trifluoroacetic acid salt] gave an IC50 of 15 nM. In the case of `CS(=O)(=O)NC(=O)c1cc(C2CC2)c(OCC2CCN(Cc3cc(Cl)cc(C#N)c3)CC2)cc1F` [Example 590, 4-((1-(3-chloro-5-cyanobenzyl)piperidin-4-yl)methoxy)-5-cyclopropyl-2-fluoro-N-(methylsulfonyl)benzamide], the IC50 is 26 nM. On the same count and under the same terms, next, `CS(=O)(=O)NC(=O)c1cc(C2CC2)c(O[C@@H]2CCCN(Cc3ccccc3Cl)C2)cc1F` [Example 24, (R)-4-((1-(2-chlorobenzyl)piperidin-3-yl)oxy)-5-cyclopropyl-2-fluoro-N-(methylsulfonyl)benzamide]: 6 nM; `C[C@@H]1CN(Cc2cc(F)c(C(=O)NS(C)(=O)=O)cc2C2CC2)CCN1[C@@H](C)c1cc(Cl)cc(Cl)c1` [Example 571, 5-cyclopropyl-4-(((R)-4-((S)-1-(3,5-dichlorophenyl)ethyl)-3-methylpiperazin-1-yl)methyl)-2-fluoro-N-(methylsulfonyl)benzamide]: 44.3 nM. In turn, `CC1(C)CN(Cc2cc(F)c(C(=O)NS(C)(=O)=O)cc2C2CC2)CCC1Oc1cc(C(F)(F)F)c(Cl)cn1` (stereo not shown) [Example 561, 4-((4-((5-chloro-4-(trifluoromethyl)pyridin-2-yl)oxy)-3,3-dimethylpiperidin-1-yl)methyl)-5-cyclopropyl-2-fluoro-N-(methylsulfonyl)benzamide, trifluoroacetic acid salt] yielded an IC50 of 2.8 nM.

The molecule `O=C(NS(=O)(=O)C1CC1)c1cc(C2CC2)c(CN2CCC(CF)(c3ccc(F)cc3)CC2)cc1F` [Example 514, 5-cyclopropyl-N-(cyclopropylsulfonyl)-2-fluoro-4-((4-(fluoromethyl)-4-(4-fluorophenyl)piperidin-1-yl)methyl)benzamide, trifluoroacetic acid salt] came in with an IC50 of 24.4 nM. As for `O=C(NS(=O)(=O)C1CC1)c1cc(C2CC2)c(O[C@@H]2CCCN(C(c3ccccc3)c3ccccc3)C2)cc1F` [Example 16, (R)-4-((1-benzhydrylpiperidin-3-yl)oxy)-5-cyclopropyl-N-(cyclopropylsulfonyl)-2-fluorobenzamide], the IC50 was found to be 3.4 nM.

Still in this experiment, the particulars now being: read-out: Ligand Binding Assay; 100 pM [3H]compound, membranes with hNav1.7 and β1 subunit, 18 h, room temperature.
Take `C[C@H](c1cc(Cl)cc(Cl)c1)N1CCC(F)(COc2cc(F)c(C(=O)NS(C)(=O)=O)cc2C2CC2)CC1` [Example 351, (R)-5-cyclopropyl-4-((1-(1-(3,5-dichlorophenyl)ethyl)-4-fluoropiperidin-4-yl)methoxy)-2-fluoro-N-(methylsulfonyl)benzamide, trifluoroacetic acid]: the IC50 is 5.3 nM. With `CS(=O)(=O)NC(=O)c1cc(C2CC2)c(CN2[C@@H]3CC[C@H]2C[C@@H](Oc2cc(C(F)(F)F)c(Cl)cn2)C3)cc1F` [Example 550, 4-(((1R,3r,5S)-3-((5-chloro-4-(trifluoromethyl)pyridin-2-yl)oxy)-8-azabicyclo[3.2.1]octan-8-yl)methyl)-5-cyclopropyl-2-fluoro-N-(methylsulfonyl)benzamide, trifluoroacetic acid salt], the IC50 is 13.6 nM.

On to `CS(=O)(=O)NC(=O)c1cc(C2CC2)c(O[C@@H]2CCCN(Cc3cc(Cl)cc(OC(F)(F)F)c3)C2)cc1F` [Example 422, (R)-4-((1-(3-chloro-5-(trifluoromethoxy)benzyl)piperidin-3-yl)oxy)-5-cyclopropyl-2-fluoro-N-(methylsulfonyl)benzamide, trifluoroacetic acid salt], for which the IC50 turned out to be 1.3 nM. Same read-out and setting: the figure for `O=C(NS(=O)(=O)N1CCC1)c1cc(C2CC2)c(OCC2CCN(CCC(F)(F)F)CC2)cc1F` [Example 194, N-(azetidin-1-ylsulfonyl)-5-cyclopropyl-2-fluoro-4-((1-(3,3,3-trifluoropropyl)piperidin-4-yl)methoxy)benzamide] is 180 nM; for `CS(=O)(=O)NC(=O)c1cc(C2CC2)c(O[C@@H]2CCCN(CC3(C(F)(F)F)CCCC3)C2)cc1F` [Example 327, (R)-5-cyclopropyl-2-fluoro-N-(methylsulfonyl)-4-((1-((1-(trifluoromethyl)cyclopentyl)methyl)piperidin-3-yl)oxy)benzamide] it is 2.7 nM; for `O=C(NS(=O)(=O)C1CC1)c1cc(C2CC2)c(OCC2CCN(C(=O)c3ccccc3)CC2)cc1F` [Example 198, 4-((1-Benzoylpiperidin-4-yl)methoxy)-5-cyclopropyl-N-(cyclopropylsulfonyl)-2-fluorobenzamide] it is 550 nM.

For `C[C@@H](c1cc(Cl)cc(C(F)(F)F)c1)N1CCC(COc2cc(F)c(C(=O)NS(C)(=O)=O)cc2C2CC2)CC1` (single isomer, unassigned) [Example 277], the IC50 amounted to 4 nM. Still for that read-out and setting: the figure for `O=C(NS(=O)(=O)C1CC1)c1cc(C2CC2)c(OCC2CCN(Cc3ncccc3C(F)(F)F)CC2)cc1F` [Example 364, 5-cyclopropyl-N-(cyclopropylsulfonyl)-2-fluoro-4-((1-((3-(trifluoromethyl)pyridin-2-yl)methyl)piperidin-4-yl)methoxy)benzamide, trifluoroacetic acid salt] is 80.6 nM; for `O=C(NS(=O)(=O)C1CC1)c1cc(C2CC2)c(CN2CCC[C@@H](Oc3cc(Cl)cc(Cl)c3)C2)cc1F` [Example 55, (R)-5-cyclopropyl-N-(cyclopropylsulfonyl)-4-((3-(3,5-dichlorophenoxy)piperidin-1-yl)methyl)-2-fluorobenzamide] it is 23.3 nM. The same measure, in the same setting: next, `COC[C@@H](c1ccc(Cl)c(Cl)c1)N1CCC(COc2cc(F)c(C(=O)NS(C)(=O)=O)cc2C2CC2)CC1` (single isomer, unassigned) [Example 264]: 9.2 nM; `COC[C@@H](c1cc(Cl)cc(Cl)c1)N1CCC(COc2cc(F)c(C(=O)NS(=O)(=O)N3CCC3)cc2C2CC2)CC1` (single isomer, unassigned) [Example 166]: 3.9 nM; `CS(=O)(=O)NC(=O)c1cc(C2CC2)c(OCC2CN([C@H](c3ccccc3)c3ccc(S(C)(=O)=O)cc3)C2)cc1F` [Example 96, (R)-5-Cyclopropyl-2-fluoro-N-(methylsulfonyl)-4-((1-((4-(methylsulfonyl)phenyl)(phenyl)methyl)azetidin-3-yl)methoxy)benzamide]: 429 nM. Same read-out and setting: the figure for `C[C@H](c1cc(Cl)cc(Cl)c1)N1[C@@H]2CC[C@H]1C[C@H](COc1cc(F)c(C(=O)NS(C)(=O)=O)cc1C1CC1)C2` [Example 353, 5-cyclopropyl-4-(((1R,3S,5S)-8-((R)-1-(3,5-dichlorophenyl)ethyl)-8-azabicyclo[3.2.1]octan-3-yl)methoxy)-2-fluoro-N-(methylsulfonyl)benzamide, trifluoroacetic acid salt] is 11 nM. In the case of `O=C(NS(=O)(=O)C1CC1)c1cc(C2CC2)c(OCC2CCN(CCC(F)(F)F)CC2)cc1F` [Example 193, 5-Cyclopropyl-N-(cyclopropylsulfonyl)-2-fluoro-4-((1-(3,3,3-trifluoropropyl)piperidin-4-yl)methoxy)benzamide], the IC50 amounted to 52 nM. On the same count and under the same terms, the figure for `CS(=O)(=O)NC(=O)c1cc(C2CC2)c(O[C@H]2CCCN(Cc3ccc(F)cc3Cl)C2)cc1F` [Example 573, (S)-4-((1-(2-chloro-4-fluorobenzyl)piperidin-3-yl)oxy)-5-cyclopropyl-2-fluoro-N-(methylsulfonyl)] is 107 nM; for `CS(=O)(=O)NC(=O)c1cc(C2CC2)c(O[C@@H]2CCCN(Cc3cc(Cl)ccc3O)C2)cc1F` [Example 427, (R)-4-((1-(5-chloro-2-hydroxybenzyl)piperidin-3-yl)oxy)-5-cyclopropyl-2-fluoro-N-(methylsulfonyl)benzamide, trifluoroacetic acid salt] it is 19 nM. `CS(=O)(=O)NC(=O)c1cc(C2CC2)c(OCC2CN([C@@H](c3ccccc3)c3cccnc3)C2)cc1F` [Example 82]: the IC50 amounted to 408 nM. Still for that read-out and setting: next, `CC1(COc2cc(F)c(C(=O)NS(C)(=O)=O)cc2C2CC2)CN(Cc2cc(Cl)cc(Cl)c2)C1` [Example 77]: 6.4 nM; `CS(=O)(=O)NC(=O)c1cc(C2CC2)c(OCC2CCN(C(c3ccc(F)cc3)c3ccc(F)cc3)CC2)cc1F` [Example 418, 4-((1-(bis(4-fluorophenyl)methyl)piperidin-4-yl)methoxy)-5-cyclopropyl-2-fluoro-N-(methylsulfonyl)benzamide, trifluoroacetic acid salt]: 3.2 nM.

As to `CS(=O)(=O)NC(=O)c1cc(C2CC2)c(CN2CCC(Oc3ccc(C(F)(F)F)cn3)CC2)cc1F` [Example 476, 5-cyclopropyl-2-fluoro-N-(methylsulfonyl)-4-((4-((5-trifluoromethyl)pyridin-2-yl)oxypiperidin-1-yl)methyl)benzamide, trifluoroacetic acid salt], the IC50 was 37.2 nM.

Consider `CC(c1cc(Cl)cc(Cl)c1)N1CC(COc2cc(F)c(C(=O)NS(C)(=O)=O)cc2C2CC2)C1` (stereo not shown) [Example 98, 5-Cyclopropyl-4-((1-(1-(3,5-dichlorophenyl)ethyl)azetidin-3-yl)methoxy)-2-fluoro-N-(methylsulfonyl)benzamide], for which the IC50 was determined as 7.51 nM. As to `C[C@H](c1cc(Cl)cc(Cl)c1)N1CCC(C#N)(COc2cc(F)c(C(=O)NS(C)(=O)=O)cc2C2CC2)CC1` [Example 597], the IC50 came out at 27.6 nM. Regarding `CCS(=O)(=O)NC(=O)c1cc(C2CC2)c(OCC2(C)CN(c3ncc(C(F)(F)F)cc3Cl)C2)cc1F` [Example 482, 4-((1-(3-chloro-5-(trifluoromethyl)pyridin-2-yl)-3-methylazetidin-3-yl)methoxy)-5-cyclopropyl-N-(ethylsulfonyl)-2-fluorobenzamide], the IC50 was determined as 3.3 nM.

The values are drawn from patent US9546164B2 (GENENTECH, INC., priority 2013, dated 2017).
